# Measurements: patent US11008323B2, “Substituted tricyclic 1,4-benzodiazepinone derivatives as allosteric modulators of group II metabotropic glutamate receptors” (Domain Therapeutics, priority 2015, dated 2021)
# Target: T1, human mGluR3 (hmGluR3) (Homo sapiens, UniProt Q14832)
# T1 construct: expressed in transfected cells; host or cells: HEK-293 cells, transient co-transfection by electroporation
# Experiment: Human mGluR3 positive allosteric modulator evaluation using Ca++ functional assay
# Type: cell-based
# Conditions: hmGluR3 transiently over-expressed in HEK-293 cells; stimulated by EC50 glutamate concentration; intracellular Ca2+ (Fluo4AM, FLIPR Tetra)
# Protocol: Compounds of the present invention were tested successively for their agonist and positive allosteric modulator activities on human mGluR3 (hmGluR3) transiently over-expressed in HEK-293 cells. Compounds exert agonist activity if they are able to activate hmGluR3 by themselves, i.e., in absence of the endogenous agonist glutamate; and they exert positive allosteric modulator activity if they increase the action of the endogenous agonist glutamate.
# HEK-293 cells were maintained in Modified Eagle's Medium supplemented with 10% Foetal Calf Serum, 1% Penicillin/Streptomycin and 1% non-essential amino acids at 37° C./5% CO2.
# Cells were co-transfected by electroporation with four DNA plasmids encoding hmGluR3, a chimeric G protein allowing redirection of the activation signal toward intracellular calcium pathway, and two glutamate transporters so as to decrease extracellular glutamate levels and avoid receptor desensitization (Brabet I et al., Neuropharmacology 37(8), 1043-51, 1998). After transfection, cells were seeded in 75 cm^2 culture flasks, and cultured for 24 h.
# Receptor activity was detected by changes in intracellular calcium measured using the fluorescent Ca^2+ sensitive dye, Fluo4AM (Molecular Probes).
# The day of the assay, medium was aspirated and replaced during 3 hrs by freshly prepared buffer B (HBSS 1×, Hepes 20 mM, MgSO4-7H2O 1 mM, Na2CO3 3.3 mM, CaCl2-2H2O 1.3 mM, 0.5% BSA, Probenecid 2.5 mM). Then, cells were loaded at 37° C./5% CO2 for 1.5 hrs with buffer B containing 1 μM Fluo4AM, 0.1 mg/mL Pluronic Acid, 7 μg/mL Glutamate Pyruvate Transaminase and 2 mM sodium pyruvate. Afterwards cells were washed with buffer B. Cells were then detached from the 75 cm^2 culture flasks with Accutase® (5 min incubation at 37° C.), centrifuged (5 min at 840 rpm), resuspended in buffer B and finally seeded at a density of 30,000 cells/well in black-walled clear-bottom 384-well plates. Addition of compounds on cells and intracellular Ca^2+ measurements (excitation 485 nm, emission 525 nm) were performed by the fluorescence microplate reader FLIPR Tetra (Molecular Devices).
# Agonist and positive allosteric modulator activities of compounds were consecutively evaluated on the same cells plate. Agonist activity was first tested during 10 min with the addition of compound alone on the cells. Then, the cells were stimulated by an EC50 glutamate concentration and fluorescence was recorded for additional 3 min. EC50 glutamate concentration is the concentration giving 50% of the maximal glutamate response. Agonist and/or positive allosteric modulator activity(ies) were evaluated in comparison to basal signal or signal evoked by EC50 glutamate concentration alone, respectively.
# For potency determination, a dose-response test was performed using 20 concentrations of each compound of the invention. Dose-response curves were fitted using the sigmoïdal dose-response (variable slope) analysis in XLfit Scientific Curve Fitting for Excel (IDBS). EC50 of agonist/EC50 of positive allosteric modulator activity(ies) were calculated. Dose-response experiments were all performed in duplicate, two times independently.
# T1 sequence (Q14832 23-879): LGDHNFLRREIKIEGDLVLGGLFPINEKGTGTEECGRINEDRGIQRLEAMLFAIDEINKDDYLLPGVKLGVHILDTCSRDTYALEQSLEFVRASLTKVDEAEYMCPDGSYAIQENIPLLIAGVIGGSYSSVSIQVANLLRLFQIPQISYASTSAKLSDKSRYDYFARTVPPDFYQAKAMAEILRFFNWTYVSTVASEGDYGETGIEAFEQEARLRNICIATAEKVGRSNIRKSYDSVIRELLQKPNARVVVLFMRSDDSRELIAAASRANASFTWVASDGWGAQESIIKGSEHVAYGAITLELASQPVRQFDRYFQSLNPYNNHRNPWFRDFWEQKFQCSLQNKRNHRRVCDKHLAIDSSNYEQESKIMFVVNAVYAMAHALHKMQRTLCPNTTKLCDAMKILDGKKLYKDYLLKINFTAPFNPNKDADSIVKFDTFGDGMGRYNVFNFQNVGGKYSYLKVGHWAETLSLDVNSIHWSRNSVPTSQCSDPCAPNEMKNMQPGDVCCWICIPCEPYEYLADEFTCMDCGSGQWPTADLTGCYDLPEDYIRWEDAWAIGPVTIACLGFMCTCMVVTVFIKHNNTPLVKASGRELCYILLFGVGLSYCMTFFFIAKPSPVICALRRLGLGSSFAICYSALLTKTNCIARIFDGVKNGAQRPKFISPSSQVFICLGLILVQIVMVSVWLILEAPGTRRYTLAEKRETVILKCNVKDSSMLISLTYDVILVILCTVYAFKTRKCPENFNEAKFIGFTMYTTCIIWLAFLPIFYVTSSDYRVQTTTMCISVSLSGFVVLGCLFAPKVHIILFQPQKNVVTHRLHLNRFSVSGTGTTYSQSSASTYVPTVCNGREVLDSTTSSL
row,Structure (SMILES),EC50 [nM]
1,"Cc1ncccc1-c1ccc2c(c1)-n1c(cc(Cl)c1F)C(=O)N(C)C21CC1 [Example 83, 9-(2-Methyl-pyridin-3-yl)-2-chloro-1-fluoro-5-methyl-spiro[benzo[f]pyrrolo[1,2-a][1,4]diazepine-6,1′-cyclopropan]-4(5H)-one]",< 100
2,"Cc1ncccc1-c1ccc2c(c1)-n1cccc1C(=O)N(C)C2C (stereo not drawn) [Example 218, 5,6-Dimethyl-9-(2-methyl-pyridin-3-yl)-5,6-dihydro-benzo[f]pyrrolo[1,2-a][1,4]diazepin-4-one]",100 to 1000
3,CCc1ncccc1-c1ccc2c(c1)-n1cc(-c3ccnn3C)cc1C(=O)N(C)C21CC1 [Example 163],< 100
4,"CCc1ncccc1-c1ccc2c(c1)-n1cc(Br)cc1C(=O)N(C)C21CC1 [Example 19, 2-Bromo-5-methyl-9-(2-ethyl-pyridin-3-yl)-spiro[benzo[f]pyrrolo[1,2-a][1,4]diazepine-6,1′-cyclopropan]-4(5H)-one]",100 to 1000
5,CCc1ncccc1-c1ccc2c(c1)-n1cc(C)cc1C(=O)N(C)C21CC1 [Example 199],< 100
6,"Cc1ccc(-c2ccc3c(c2)-n2cccc2C(=O)N(C)C32CC2)cn1 [Example 25, 5-Methyl-9-(6-methylpyridin-3-yl)-spiro[benzo[f]pyrrolo[1,2-a][1,4]diazepine-6,1′-cyclopropan]-4(5H)-one]",< 100
7,"CN1C(=O)c2cccn2-c2cc(-c3ccc(N4CCOCC4)nc3)ccc2C12CC2 [Example 42, 5-Methyl-9-(6-morpholin-4-yl-pyridin-3-yl)-spiro[benzo[f]pyrrolo[1,2-a][1,4]diazepine-6,1′-cyclopropan]-4(5H)-one]",100 to 1000
8,"CN1C(=O)c2cc(-c3ccccc3)nn2-c2cc(-c3cccc(Cl)c3)ccc2C12CC2 [Example 130, 9-(3-Chloro-phenyl)-5-methyl-2-phenyl-spiro[benzo[f]pyrazolo[1,5-a][1,4]diazepine-6,1′-cyclopropan]-4(5H)-one]",100 to 1000
9,"Cc1ncccc1-c1ccc2c(c1)-n1cncc1C(=O)N(C)C2 [Example 215, 5-Methyl-9-(2-methylpyridin-3-yl)-5,6-dihydro-4H-benzo[f]imidazo[1,5-a][1,4]diazepin-4-one]",> 1000
10,"Cc1cc(-c2ccc3c(c2)-n2cc(-c4ccccc4)cc2C(=O)N(C)C32CC2)cc(C)n1 [Example 97, 5-Methyl-2-phenyl-9-(2,6-dimethyl-pyridin-4-yl)-spiro[benzo[f]pyrrolo[1,2-a][1,4]diazepine-6,1′-cyclopropan]-4(5H)-one]",100 to 1000
11,Cc1ncccc1-c1ccc2c(c1)-n1cc(-c3nccs3)cc1C(=O)N(C)C21CC1 [Example 157],< 100
12,Cc1ncccc1-c1ccc2c(c1)-n1cc(-c3cc[nH]n3)cc1C(=O)N(C)C21CC1 [Example 146],< 100
13,"CN1C(=O)c2cccn2-c2cc(-c3cccnc3)ccc2C12CC2 [Example 23, 5-Methyl-9-(pyridin-3-yl)-spiro[benzo[f]pyrrolo[1,2-a][1,4]diazepine-6,1′-cyclopropan]-4(5H)-one]",100 to 1000
14,CCc1ncccc1-c1ccc2c(c1)-n1cc(CO)cc1C(=O)N(C)C21CC1 [Example 203],100 to 1000
15,"CN1C(=O)c2cccn2-c2cc(-c3cccnc3C3CC3)ccc2C12CC2 [Example 62, 5-Methyl-9-(2-cyclopropylpyridin-3-yl)-spiro[benzo[f]pyrrolo[1,2-a][1,4]diazepine-6,1′-cyclopropan]-4(5H)-one]",100 to 1000
16,"CCc1ncccc1-c1ccc2c(c1)-n1cccc1C(=O)N(C)C21CC1 [Example 24, 5-Methyl-9-(2-ethylpyridin-3-yl)-spiro[benzo[f]pyrrolo[1,2-a][1,4]diazepine-6,1′-cyclopropan]-4(5H)-one]",100 to 1000
17,CCc1ncccc1-c1ccc2c(c1)-n1cc(COC)cc1C(=O)N(C)C21CC1 [Example 206],< 100

row,Structure (SMILES),EC50 [nM]
1,"Cc1ncccc1-c1ccc2c(c1F)-n1cccc1C(=O)N(C)C21CC1 [Example 75, 10-Fluoro-5-methyl-9-(2-methyl-pyridin-3-yl)-spiro[benzo[f]pyrrolo[1,2-a][1,4]diazepine-6,1′-cyclopropan]-4(5H)-one]",100 to 1000
2,"CN1C(=O)c2cc(Cl)cn2-c2cc(Br)ccc2C12CC2 [Example 5, 9-Bromo-2-chloro-5-methyl-spiro[benzo[f]pyrrolo[1,2-a][1,4]diazepine-6,1′-cyclopropan]-4(5H)-one]",> 1000
3,"CN1C(=O)c2cc(-c3ccccc3)cn2-c2cc(-c3ccc(N)nc3)ccc2C12CC2 [Example 96, 5-Methyl-2-phenyl-9-(6-amino-pyridin-3-yl)-spiro[benzo[f]pyrrolo[1,2-a][1,4]diazepine-6,1′-cyclopropan]-4(5H)-one]",100 to 1000
4,Cc1ccc(-c2ccc3c(c2)-n2cc(-c4nccs4)cc2C(=O)N(C)C32CC2)cn1 [Example 158],< 100
5,"CCC1c2ccc(-c3cccnc3C)cc2-n2cccc2C(=O)N1C (stereo not drawn) [Example 220, 6-Ethyl-5-methyl-9-(2-methyl-pyridin-3-yl)-5,6-dihydro-benzo[f]pyrrolo[1,2-a][1,4]diazepin-4-one]",100 to 1000
6,Cc1ncccc1-c1ccc2c(c1)-n1cc(-c3ccccc3Cl)cc1C(=O)N(C)C21CC1 [Example 147],100 to 1000
7,"Cc1cncc(-c2ccc3c(c2)-n2cc(-c4ccccc4)cc2C(=O)N(C)C32CC2)c1 [Example 98, 5-Methyl-2-phenyl-9-(5-methyl-pyridin-3-yl)-spiro[benzo[f]pyrrolo[1,2-a][1,4]diazepine-6,1′-cyclopropan]-4(5H)-one]",100 to 1000
8,Cc1ncccc1-c1ccc2c(c1)-n1cc(C3CCCC3)cc1C(=O)N(C)C21CC1 [Example 156],100 to 1000
9,"CN1C(=O)c2cc(-c3ccccc3)nn2-c2cc(Br)ccc2C12CC2 [Example 11, 9-Bromo-5-methyl-2-phenyl-spiro[benzo[f]pyrazolo[1,5-a][1,4]diazepine-6,1′-cyclopropan]-4(5H)-one]",> 1000
10,"CN1C(=O)c2cccn2-c2ccc(Br)cc2C12CC2 [Example 13, 8-Bromo-5-methyl-spiro[benzo[f]pyrrolo[1,2-a][1,4]diazepine-6,1′-cyclopropan]-4(5H)-one]",> 1000
11,"Cc1ncccc1-c1ccc2c(c1)-n1ccc(Cl)c1C(=O)N(C)C21CC1 [Example 84, 9-(2-Methyl-pyridin-3-yl)-3-chloro-5-methyl-spiro[benzo[f]pyrrolo[1,2-a][1,4]diazepine-6,1′-cyclopropan]-4(5H)-one]",100 to 1000
12,Cc1ncccc1-c1ccc2c(c1)-n1cc(CC3CCCC3)cc1C(=O)N(C)C21CC1 [Example 196],100 to 1000
13,"Cc1cc(-c2ccc3c(c2)-n2nc(-c4ccccc4)cc2C(=O)N(C)C32CC2)ccn1 [Example 122, 9-(2-Methyl-pyridin-4-yl)-5-methyl-2-phenyl-spiro[benzo[f]pyrazolo[1,5-a][1,4]diazepine-6,1′-cyclopropan]-4(5H)-one]",100 to 1000
14,CCc1ncccc1-c1ccc2c(c1)-n1cc(-c3ccccc3F)cc1C(=O)N(C)C21CC1 [Example 162],< 100
15,"Cc1ncccc1-c1ccc2c(c1)-n1cc(-c3ccccc3)nc1C(=O)N(C)C2 [Example 166, 5-Methyl-9-(2-methylpyridin-3-yl)-2-phenyl-5,6-dihydro-4H-benzo[f]imidazo[1,2-a][1,4]diazepin-4-one]",100 to 1000
16,CC(=O)c1cc2n(c1)-c1cc(-c3cccnc3C)ccc1C1(CC1)N(C)C2=O [Example 195],100 to 1000
